Results from patent US11603391B2, “CATH2 derivatives” (Universiteit Utrecht Holding B.V., priority 2014, dated 2023).
No end group written: not given here.

Key:
HD11 cells = experiment: Neutralization of LPS-induced interleukin-1β transcription in HD11 cells (real time PCR); assay type: cell-based, chicken; details: 20 μM peptide pre-incubated with 50 ng/ml LPS; 4 h
Procedure: (§1) FIG. 11A-11B—Neutralization of lipopolysaccharide-induced interleukin-1β induction and nitric oxide production in HD11 cells by CMAP27 derived peptides. HD11 cells were seeded in 96 wells tissue culture treated plates (2×10^5 cell/mL) in RPMI-1640/10% FCS. Final concentrations of 50 ng/ml LPS were pre-incubated with or without 20 μM peptide for 30 min at 37° C. (5% CO2), applied to the cells and incubated for 4 h and 24 h. A) Transcription levels of interleukin-1 were determined by real time PCR (4 h only). B) Supernatants were collected for the determination of nitric oxide production (24 h incubations only) using the Griess assay. Significance levels: *P<0.05, **P<0.01, ***P<0.001. Data represents means±SEM from 3-4 independent experiments.
as §1, with “FIG. 12A-12B—Substitution” for “FIG. 11A-11B—Neutralization”, “of phenylalanine residues by tryptophan enhances the” for “of lipopolysaccharide-induced interleukin-1β induction and nitric oxide production”, “in vitro LPS neutralization capacity of” for “in HD11 cells by”, “h or” for “h and”
HD11 cells were seeded in 96 wells tissue culture treated plates (2×10^5 cell/mL) in RPMI-1640/10% FCS. Final concentrations of 50 ng/ml Salmonella minnesota LPS were pre-incubated with or without 20 μM peptide for 30 min at 37° C. (5% CO2), applied to the cells and incubated for 4 h and 24 h. A) Transcription levels of interleukin-1 were determined by real time PCR (4 h only). B) Supernatants were collected for the determination of nitric oxide production (24 h incubations only) using the Griess assay.

[1] = assay type: in vivo, chicken (Ross308 broilers); details: for bodyweight at 7 days post hatch (D7): 1 mg/kg in ovo at embryonic day 18, compared to vehicle treated birds; for HATCHABILITY: in vivo, 1 mg/kg
Procedure: FIG. 8A-8B—Bodyweights of Ross308 broilers assessed at hatch (D0) (FIG. 8A) and at 7 days after hatch (D7) (FIG. 8B). Birds were injected at embryonic day 18 with 1 mg/kg peptide or vehicle.
DCATH2 peptide and truncated analogs D-CMAP(1-21) and D-CMAP(4-21) were suspended in a Cholesterol/PBS formulation. Ross308 eggs were injected in the amnion fluid at 18 days of embryonic age with 100 μl of peptide containing suspension and returned to an egg incubator to hatch (˜ at 21 days embryonic age). Both control groups were injected in the amnion fluid with cholesterol/PBS formulation. The 1 mg/kg bodyweight dose of peptide was calculated based on an embryo body weight of 22 g. After hatch, all birds were weighed individually (D0) and transferred into isolator units per treatment (n=120/group). Birds were fed ad libitum and at 7 days after hatch (D7) bodyweights of individual birds were assessed.

[2] = test system: avian pathogenic Salmonella enteritidis pt13a; experiment: In ovo peptide treatment, subcutaneous Salmonella enteritidis challenge of broiler chicks; assay type: in vivo, chicken (Ross308 broilers)
Source text: FIG. 1A-1B—Differential and total counts of chicken peripheral blood leukocytes at 2 days p.i. after subcutaneous injection with 10^6 CFU of avian pathogenic Salmonella enteritis pt13a. A) total counts. B) differential counts.
FIG. 2A-2B—Mortality after subcutaneous injection with 10^6 CFU of avian pathogenic Salmonella enteritis pt13a. A) Survival curves of peptide treated and nontreated birds during 7 days post infection. B) Reduction of mortality (%) relative to untreated infected birds (+ control).
(§2) FIG. 3A-3B—Lesion scores determined at 7 days p.i. after subcutaneous injection with 10^6 CFU of avian pathogenic Salmonella enteritis pt13a. Left and right thoracic air sacs (respiratory tract), liver and heart (systemic infection) were separately evaluated using a scoring system: 0=no lesions, 1=mild lesions, 2=moderate lesions and 3=severe lesions. The mean lesion scores (MLS) were calculated as the sum of lesion scores per bird. A) The percentage of salmonellosis positive birds (MLS>1) and the reduction of salmonellosis positive birds relative to untreated infected birds. B) The average lesion scores relative to untreated infected birds.
DCATH2 peptide (the full D-amino acid analog of CMAP1-26) was suspended in a cholesterol/PBS formulation. Ross308 eggs were injected in the amnion fluid at 18 days of embryonic age with 100 μl of DCATH2 containing suspension and returned to an egg incubator to hatch (˜ at 21 days embryonic age). Both control groups were injected in the amnion fluid with cholesterol/PBS formulation. The 1 mg/kg bodyweight dose of peptide was calculated based on an embryo body weight of 22 g. After hatch, birds were transferred into 4 pens per treatment (n=40/group). Three days after hatch, all birds except the negative control were subcutaneously inoculated with an avian pathogenic Salmonella enteritidis pt13a strain at a dose of 5×10^6 CFU per bird. Two day after challenge, 12 birds per group were sacrificed and used to take samples for blood and organ analysis. Blood samples were taken to determine total leukocyte counts and leukocyte differentiation. During the 7 day challenge period mortality was registered per day. At the end of the challenge period at 7 days post infection, all remaining birds were sacrificed and in the left and right side thoracic air sacs, liver and heart were examined for lesion scores.

[3] = test system: avian pathogenic Escherichia coli 506; experiment: In ovo peptide treatment, intratracheal E. coli challenge of broiler chicks; assay type: in vivo, chicken (Ross308 broilers)
Source text: FIG. 4A-4B—Differential and total counts of chicken peripheral blood leukocytes at 2 days p.i. after intra-tracheal injection with 10^6 CFU of avian pathogenic E. coli 506. A) total counts. B) differential counts.
FIG. 5A-5B—Mortality after intra-tracheal injection with 10^6 CFU of avian pathogenic E. coli 506. A) Survival curves of peptide treated and nontreated birds during 7 days post infection. B) Reduction of mortality (%) relative to untreated infected birds.
as §2, with “6A-6B—Lesion” for “3A-3B—Lesion”, “intratracheal” for “subcutaneous”, “E. coli 506.” for “Salmonella enteritis pt13a.”, “colibacillosis” for “salmonellosis”
FIG. 7—Thoracic air sac counts 7 days after intratracheal injection with 10^6 CFU of avian pathogenic E. coli 506.
DCATH2 peptide was suspended in a Cholesterol/PBS formulation. Ross308 eggs were injected in the amnion fluid at 18 days of embryonic age with 100 μl of DCATH2 containing suspension and returned to an egg incubator to hatch (˜ at 21 days embryonic age). Both control groups were injected in the amnion fluid with cholesterol/PBS formulation. The 1 mg/kg bodyweight dose of DCATH2 peptide was calculated based on an embryo body weight of 22 g. After hatch, birds were transferred into isolator units per treatment (n=54/group). Three days after hatch, all birds except the negative control were intratracheally inoculated with an avian pathogenic Escherichia coli 506 strain (UU strain) at a dose of 1×10^6 CFU per bird. Two day after challenge, 13 birds per group were sacrificed and used to take samples for blood and organ analysis. Blood samples were taken to determine total leukocyte counts and leukocyte differentiation. During the 7 day challenge period mortality was registered per day. At the end of the challenge period at 7 days post infection, all remaining birds were sacrificed and in the left and right side thoracic air sacs, liver and heart were examined for lesion scores.

[4] = 7 days p.i., 1 mg/kg in ovo, surviving birds
[5] = 2 days p.i., 1 mg/kg in ovo, compared to untreated non-infected birds
[6] = 2 days p.i., compared to non-treated, non-infected animals

## CMAP10-21-NH2: N-terminally truncated variant of CMAP1-21 (RRFRPKVTITIQ-NH2)
HD11 cells
  LPS-neutralizing activity (block of LPS-induced IL-1β expression, in words): lack LPS-neutralizing activity

## Phe/Trp substituted analog of CMAP7-21-NH2: CMAP7-21-NH2 with phenylalanine substituted by tryptophan (RKIRRWRPKVTITIQ-NH2)
HD11 cells
  LPS-induced IL-1β expression blocked: 86.3%

## Phe/Trp substituted analog of CMAP10-21-NH2: CMAP10-21-NH2 with phenylalanine substituted by tryptophan (RRWRPKVTITIQ-NH2)
HD11 cells
  LPS-induced IL-1β expression blocked: 71.9%

## RFGRFLREIRRFRPKVTITIQ-NH2 [D-C(1-21)]
[1]
  bodyweight at 7 days post hatch (D7): significant higher
  HATCHABILITY: 95%

## RFGRFLREIRRFRPKVTITIQGSARF-NH2 [DCATH2]
[2]; 1 mg/kg in ovo at embryonic day 18, Salmonella challenge 3 days after hatch
  delay of mortality: up to 3 days p.i.
[2]; 2 days p.i., 1 mg/kg in ovo, compared to non-infected birds
  absolute number of peripheral blood heterophils: significantly higher
[2]; 7 days p.i., 1 mg/kg in ovo
  decrease of severity of lesions in salmonellosis positive birds: 69%
  reduction of mortality relative to untreated infected birds: 50%
[2]; [4]
  reduction of salmonellosis positive birds (mean lesion score>1) relative to untreated infected birds: 53%
[3]; [5]
  absolute number of peripheral blood heterophils: significantly higher
  absolute number of peripheral blood leukocytes: significantly higher
[3]; [6]
  absolute number of lymphocytes: No differences
  absolute number of monocytes: No differences
[3]; 7 days p.i., 1 mg/kg in ovo
  reduction of mortality relative to untreated infected birds: 30%
  reduction of severity of colibacillosis-related lesions: 64%
[3]; [4]
  reduction of colibacillosis positive birds (MLS>1) relative to untreated infected birds: 52%
[3]; 7 days p.i., 1 mg/kg in ovo, thoracic air sac counts
  reduction of air sac colonization by E. coli: 93%
[1]
  bodyweight at 7 days post hatch (D7): significant higher
  HATCHABILITY: 97%

## RFGRFLRKIRRFRPKVTITIQGSARFG (CMAP27) [CATH2, in b91 probably DCATH2 is meant]
[3]; 7 days p.i., 1 mg/kg in ovo
  reduction of severity of colibacillosis-related lesions: 64%

## RFLREIRRFRPKVTITIQ-NH2 [D-C(4-21)]
[1]
  bodyweight at 7 days post hatch (D7): significant higher
  HATCHABILITY: 94%
